Measurements as given in patent US20050214744A1, “New mutational profiles in hiv-1 reverse transcriptase correlated with phenotypic drug resistance” (priority 2002, published 2005).

Columns and labels:
[1] = tested on: HIV-1/LAI; test: Antiviral activity against wild-type strain in acutely infected MT4 cells; assay type: cell-based; details: for EC50: Human immunodeficiency virus 1, table prints no unit (EC50 in μM), read-out: Median EC50
Protocol: (§1) Determination of the antiviral activity of a compound was done as described in Pauwels R. et al. (J Virol Methods 1988; 20(4):309-21). Various concentrations of the test compounds were brought into each well of a flat-bottom microtiter plate. Subsequently, HIV and MT4 cells were added to a final concentration of 200-250 50% cell culture infectious doses (CCID50)/well and 30,000 cells/well, respectively. After 5 days of incubation (37° C., 5% CO2), the cytopathic effect of the replicating virus was determined by the tetrazolium colorimetric MTT method. The dose protecting 50% of the cells from virus cytopathic effect was defined as the EC50, while the dose achieving 90% protection was defined as the EC90. Reporter gene assay The reporter gene assay used MT4-LTR-EGFP cells. Upon infection by HIV-1, the expression of the viral tat product increases transcription from the HIV-1 LTR promoter, leading to high-level expression of the reporter gene product. The assay procedure was similar to the CPE assay, except for the end reading of the assay, which was performed on day 3 by measuring the relative fluorescence of treated cultures and comparing this with the relative fluorescence of untreated cultures. The EC50 or the EC90 of a compound was defined as the concentration that inhibited the relative fluorescence by 50% or 90% respectively.
(§2) Cells are infected at a high MOI (such as 1-50 CCID50/cell), corresponding to >10^9 viral RNA copies/ml. These experiments have been designed to mimic the quasi-species variability that is observed in HIV infected individuals where 10^9 to 10^10 new viruses are produced daily with a mutation rate of 10^−4 to 10^−5. The infected MT4-LTR-EGFP cells are treated with inhibitors at 40, 200 nM, 1 μM and higher for a maximum of 30 days. The cultures are sub-cultivated and scored on virus-induced fluorescence and cytopathicity every 3-4 days. If full virus breakthrough (100% CPE) is observed the supernatants was collected and stored (new virus strain). If no full CPE was observed the cells were sub-cultivated and further grown in the presence of the same concentration compound till full virus breakthrough, with a maximum of 30 days. From the emerging virus populations a virus stock was grown in the absence of compounds and titrated. The sensitivities of the isolated strains to HIV-1 RT inhibitors were determined and the strains were genotyped.
(§3) In vitro drug selection experiments starting from wild-type HIV-1/LAI under pressure of compound 1 have been performed.

[2] = tested on: SM26 (K103N, Y181C); test: Antiviral activity against starting strain SM26 in acutely infected MT4 cells; assay type: cell-based, HIV-1; details: for EC50: Human immunodeficiency virus 1, no selecting compound, unit inferred, read-out: Median EC50; for FC (fold change in resistance, ratio of EC50 vs wild type): no selecting compound
Protocol: as §1, §2, §3

[3] = tested on: SM26-derived strain K103N, Y181C, E194E/K; test: Antiviral activity against strain selected with compound 1 0.040 μM, acutely infected MT4 cells; assay type: cell-based, HIV-1; details: SM26 selected with Compound 1 0.040 μM, breakthrough day 7, additional E194E/K; for EC50: Human immunodeficiency virus 1, MT4, 168 h, unit inferred, read-out: Median EC50
Protocol: as §1, §2, §3

[4] = tested on: SM26-derived strain K103N, Y181C, L100I, V189V/I, E194G/E; test: Antiviral activity against strain selected with compound 1 0.200 μM (day 7), acutely infected MT4 cells; assay type: cell-based, HIV-1; details: SM26 selected with Compound 1 0.200 μM, breakthrough day 7, additional L100I; for EC50: Human immunodeficiency virus 1, MT4, 168 h, unit inferred, read-out: Median EC50
Protocol: as §1, §2, §3

[5] = tested on: SM26-derived strain K103N, Y181C, L100I, E194G; test: Antiviral activity against strain selected with compound 1 1.000 μM (day 11), acutely infected MT4 cells; assay type: cell-based, HIV-1; details: SM26 selected with Compound 1 1.000 μM, breakthrough day 11, additional L100I; for EC50: Human immunodeficiency virus 1, MT4, 264 h, unit inferred, read-out: Median EC50
Protocol: as §1, §2, §3

[6] = tested on: SM26-derived strain K103N, Y181C, L100I, V189V/I, E194G/E, R356R/K; test: Antiviral activity against strain selected with compound 1 0.200 μM (day 9), acutely infected MT4 cells; assay type: cell-based, HIV-1; details: SM26 selected with Compound 1 0.200 μM, breakthrough day 9, additional L100I; for EC50: Human immunodeficiency virus 1, MT4, 216 h, unit inferred, read-out: Median EC50
Protocol: as §1, §2, §3

[7] = tested on: SM26-derived strain K103N, Y181C, L100I, V189I, E194G; test: Antiviral activity against strain selected with compound 1 1.000 μM (day 13), acutely infected MT4 cells; assay type: cell-based, HIV-1; details: SM26 selected with Compound 1 1.000 μM, breakthrough day 13, additional L100I; for EC50: Human immunodeficiency virus 1, MT4, 312 h, unit inferred, read-out: Median EC50
Protocol: as §1, §2, §3

[8] = tested on: SM26 (K103N, Y181C); test: In vitro selection of resistant strains at high MOI (virus breakthrough); assay type: cell-based, HIV-1

SMILES	FC (fold change in resistance, ratio of EC50 vs wild type) [1]	EC50 [1] [µM]	EC50 [2] [µM]	FC (fold change in resistance, ratio of EC50 vs wild type) [2]	EC50 [3] [µM]	FC (fold change in resistance, ratio of EC50 vs wild type) [3]	EC50 [4] [µM]	FC (fold change in resistance, ratio of EC50 vs wild type) [4]	EC50 [5] [µM]	FC (fold change in resistance, ratio of EC50 vs wild type) [5]	EC50 [6] [µM]	FC (fold change in resistance, ratio of EC50 vs wild type) [6]	EC50 [7] [µM]	FC (fold change in resistance, ratio of EC50 vs wild type) [7]	Days to breakthrough ([8]; 0.040 μM, selected E194E/K)	Days to breakthrough ([8]; 0.200 μM (first culture), selected L100I, V189V/I, E194G/E)	Days to breakthrough ([8]; 0.200 μM (second culture), selected L100I, V189V/I, E194G/E, R356R/K)	Days to breakthrough ([8]; 1.000 μM (first culture), selected L100I, E194G)	Days to breakthrough ([8]; 1.000 μM (second culture), selected L100I, V189I, E194G)
Cc1cc(C#N)cc(C)c1Oc1nc(Nc2ccc(C#N)cc2)nc(N)c1Br [Compound 1, Benzonitrile, 4-[[6-amino-5-bromo-2-[(4-cyanophenyl)-amino]-4-pyrimidinyl]oxy]-3,5-dimethyl-]	1	0.0014	0.005	4	0.0078	6	0.149	106	0.668	477	0.0268	19	0.261	187	day 7	day 7	day 9	day 11	day 13
O=C1Nc2ccc(Cl)cc2[C@@](C#CC2CC2)(C(F)(F)F)O1 [Efavirenz]	1	0.001	0.0367	37	0.0327	33	2.75	2.747	6.73	–	0.0565	57	3.6	3.595	–	–	–	–	–
Cc1ccnc2c1NC(=O)c1cccnc1N2C1CC1 [Nevirapine]	1	0.0763	> 10	>131	> 10	>131	> 10	>131	> 10	>131	> 10	>131	> 10	>131	–	–	–	–	–
